Source: PubChem BioAssay (NCI)
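Where inhibition never reached the appropriate level, the endpoint shown equals the highest concentration tested. Otherwise, values were interpolated linearly from a five-concentration, 48-hour dose response in 96-well plates. GI50: concentration for 50% inhibition of growth. TGI denotes the concentration required for complete inhibition of growth.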

What was measured:
Test in all cases: inhibition of tumour cell growth, NCI panel, 48 h
KM12 colon = tested on: KM12 colon
RPMI-8226 leukemia = tested on: RPMI-8226 leukemia
UACC-257 melanoma = tested on: UACC-257 melanoma
SN12C renal = tested on: SN12C renal
RXF 393 renal = tested on: RXF 393 renal
MALME-3M melanoma = tested on: MALME-3M melanoma
SK-MEL-2 melanoma = tested on: SK-MEL-2 melanoma
786-0 renal = tested on: 786-0 renal
HOP-92 NSCLC = tested on: HOP-92 NSCLC
K-562 leukemia = tested on: K-562 leukemia

Row | Structure (SMILES) | GI50 (KM12 colon) | TGI (KM12 colon) | GI50 (RPMI-8226 leukemia) | TGI (RPMI-8226 leukemia) | GI50 (UACC-257 melanoma) | TGI (UACC-257 melanoma) | GI50 (SN12C renal) | TGI (SN12C renal) | GI50 (RXF 393 renal) | TGI (RXF 393 renal) | GI50 (MALME-3M melanoma) | TGI (MALME-3M melanoma) | GI50 (SK-MEL-2 melanoma) | TGI (SK-MEL-2 melanoma) | GI50 (786-0 renal) | TGI (786-0 renal) | GI50 (HOP-92 NSCLC) | TGI (HOP-92 NSCLC) | GI50 (K-562 leukemia) | TGI (K-562 leukemia)
1 | O=C(Nc1ccc(F)cc1F)c1cc(I)ccc1O | 2930 nM | 9530 nM | 2500 nM | 8960 nM | 2090 nM | 7090 nM | 2460 nM | 8540 nM | 2500 nM | 7000 nM | 2080 nM | 6450 nM | 2290 nM | 6070 nM | 3130 nM | 9700 nM | 1200 nM | 4650 nM | 3160 nM | > 100000 nM
2 | C=C(CNCCO)[C@@H]1CC[C@]2(CO)CC[C@]3(C)[C@H](CC[C@@H]4[C@@]5(C)CCC(N)C(C)(C)[C@@H]5CC[C@]43C)[C@@H]12 (stereo not given in full) | 3400 nM | 10100 nM | 2030 nM | 4730 nM | 1800 nM | 3230 nM | 1970 nM | 4070 nM | 1530 nM | 3080 nM | 1580 nM | 3110 nM | 1980 nM | 3650 nM | 1630 nM | 3310 nM | 1290 nM | 2760 nM | 1480 nM | 3330 nM
3 | COc1ccc(NC(=O)c2cc(OC)cc(OC)c2)cc1 | – | > 100000 nM | – | > 100000 nM | – | > 100000 nM | – | > 100000 nM | – | 55900 nM | – | > 100000 nM | – | > 100000 nM | – | > 100000 nM | – | > 100000 nM | – | > 100000 nM
4 | COc1cc(/C=C/c2cc(/C=C/c3ccc(O)c(OC)c3)n(C(=O)Nc3ccc(F)cc3)n2)ccc1O | 460 nM | 9120 nM | 454 nM | 3370 nM | 2170 nM | 9120 nM | 953 nM | 34100 nM | 268 nM | 994 nM | 743 nM | 7850 nM | 515 nM | 3320 nM | 1080 nM | 6800 nM | 2120 nM | 8070 nM | 371 nM | 2910 nM
5 | NC1CCC(Nc2nc(NCc3ccc(-c4ccco4)nc3)c3ncn(C4CCCC4)c3n2)CC1 (stereo not given) | 10.7 nM | 86 nM | 11.9 nM | 89.5 nM | 27.7 nM | 88 nM | 37.1 nM | 11600 nM | 17.9 nM | 40 nM | 35 nM | 212 nM | 34 nM | 145 nM | 73.2 nM | 1800 nM | 27.5 nM | 80.3 nM | 41.7 nM | 1170 nM
6 | O=C(Nc1ccc(I)cc1)c1cc([N+](=O)[O-])ccc1O | 5360 nM | 40900 nM | 2650 nM | 8780 nM | 6890 nM | 34600 nM | 4610 nM | 75400 nM | 2860 nM | 23700 nM | 19900 nM | 70300 nM | 3540 nM | 20100 nM | 6400 nM | > 100000 nM | 709 nM | 3990 nM | 4690 nM | > 100000 nM
7 | COc1ccc(-c2cc(=O)c3ccc(O)cc3o2)c(OC)c1OC | – | > 100000 nM | – | > 100000 nM | – | > 100000 nM | – | > 100000 nM | – | 91800 nM | – | > 100000 nM | – | > 100000 nM | – | > 100000 nM | – | > 100000 nM | – | > 100000 nM
8 | O=C1C2=C(SCCS2)C(=O)c2ccccc21 | – | 3180 nM | – | 5350 nM | – | 3450 nM | – | 3390 nM | – | 3560 nM | – | 3200 nM | – | 4070 nM | – | 3120 nM | – | 3050 nM | – | 5140 nM
9 | CCOc1ccccc1-n1c(CN2CCN(C(=O)COc3ccc(CNCCCCCCN4C5CCCC4CC(OC(=O)Nc4cc(C)ccc4OC)C5)cc3)CC2)nc2ccccc2c1=O (stereo not given) | 1660 nM | 3270 nM | 1130 nM | 3400 nM | 1880 nM | 3450 nM | 1760 nM | 3240 nM | 1380 nM | 2880 nM | 1700 nM | 3210 nM | 1990 nM | 3620 nM | 1580 nM | 3090 nM | 1370 nM | 2760 nM | 651 nM | 1360 nM
10 | NC(CSC(c1ccccc1)(c1ccccc1)c1ccc2c(c1)OCO2)C(=O)O (stereo not given) | 605 nM | > 100000 nM | 306 nM | 3770 nM | 2520 nM | > 100000 nM | 633 nM | > 100000 nM | 499 nM | 54100 nM | 979 nM | 74400 nM | 511 nM | 27400 nM | 2960 nM | > 89400 nM | 750 nM | 36900 nM | 406 nM | > 100000 nM
11 | CC(=O)OC(C)C(=O)C1c2cccc(O)c2C(=O)c2c(O)cc(C)cc21 (stereo not given) | – | 1230 nM | – | 5980 nM | – | 1400 nM | – | 2240 nM | – | 813 nM | – | 1820 nM | – | 1440 nM | – | 2280 nM | – | 1020 nM | – | 9030 nM
12 | COc1ccc(-c2cc(-c3ccc(Nc4nc(Nc5ccccc5)nc(Nc5ccc(Cl)cc5)n4)cc3)nc(N)c2C#N)cc1 | 961 nM | 2140 nM | 828 nM | 3790 nM | 1250 nM | 3150 nM | 2030 nM | > 50000 nM | 654 nM | 1890 nM | 801 nM | 1800 nM | 1090 nM | 2660 nM | 1050 nM | 2060 nM | 782 nM | 2620 nM | 1520 nM | > 18600 nM
